How the values were obtained:
Candida albicans = assay: Antimicrobial test, plate count; assay type: cell-based; details: 0.035% norketotifen, within 7 days, from 500,000
Description: (§1) Studies were performed to evaluate possible antimicrobial activities of norketotifen at various concentrations and various pHs. […]. The standard microbial solutions of norketotifen contained the following excipients: Sodium citrate (0.3%), propylene glycol (1.75%), methylparaben (0.03%), propylparaben (0.01%), sterile water (as diluent).
(§2) The microorganisms were inoculated into 50 mL centrifuge tubes containing 10 mL of test sample at T=0. One (1) mL was aliquoted from each centrifuge tube for each of the following 4 weeks (except at 21 days). The log reduction was determined by the plate count method after 7, 14 and 28 days by diluting in DEB (D/E neutralizing Broth) from 10^−1 to 10^−4 for bacteria. Bacterial plates were poured with SCDA (Soybean Casein Digest Agar) and incubated at 32.5±2.5° C. for 3-5 days

Staphylococcus aureus = assay: Antimicrobial test, plate count; assay type: cell-based; details: 0.035% norketotifen, within 7 days, from 750,000
Description: as §1, §2

mice = assay: Sedative effects in mice, physostigmine lethality test; details: for Sedated animals: mice
Description: In short, physostigmine (1.0 mg/kg to 2.0 mg/kg, s.c.) generally results in 100% lethality when given to groups of mice (10 mice/group) transferred into a small volume of space. Mice administered a sedating drug prior to the physostigmine injection are protected from the stress and survive. In the present study, test compounds were given orally 60 minutes prior to physostigmine injection. The number of surviving (sedated) mice was counted 30 minutes after injection of the physostigmine dose.

croton oil-treated ears = assay: Croton oil ear inflammation, systemic (ip) administration; assay type: in vivo; details: mice, 10 mg/kg ip
Description: In order to investigate the effects of systemic administration of the test compounds in dermal inflammation, a croton oil model was used as is known in the art. This test consists of topical application of 20 μl of 1.0% croton oil to each ear of male mice, weighing 28-32 g. […] Application of the croton oil results in an inflammatory response. The weight of croton oil-treated ears was determined and the percent increase in ear weight is calculated. Test articles were dosed systemically (ip). […] All results represent mean ear weights (±S.E.M.) from 10 ears.

O=C1Cc2ccccc2C(=C2CCNCC2)c2ccsc21 (racemic) [Norketotifen, (RS)-4-(piperidylidene)-9,10-dihydro-4H-benzo-(4,5)-cyclohepta-(1,2-b) thiophene-10-one]
Candida albicans count after incubation (Candida albicans): 500 cells | Staphylococcus aureus count after incubation (Staphylococcus aureus): 90,000 | Sedated animals (mice; oral dose 83 mg/kg): 3/10 | Sedated animals (mice; oral dose 100 mg/kg): 3/10 | Sedated animals (mice; oral dose 150 mg/kg): 3/10 | Sedated animals (mice; oral dose 180 mg/kg): 6/10 | Sedation in mice (in words) (mice; physostigmine lethality test): expressed sedative activity | Average Ear weight ±SEM (croton oil-treated ears; 90 min): 34 ± 1 mg | Average Ear weight ±SEM (croton oil-treated ears; 120 min): 40 ± 1 mg

From patent US8778971B2, “Medicinal treatment of dermal diseases in companion animals” (Bridge Pharma, Inc., priority 2012, dated 2014)
